In ChEMBL document CHEMBL5608196, “1,3,5-Triazine as a promising scaffold in the development of therapeutic agents against breast cancer” (Eur J Med Chem, 2024):

Tests used:
MCF7 [1] = assay: Anticancer activity against human MCF7 cells; type: functional, cell-based
[2] = molecular target: T1, Phosphatidylinositol 4,5-bisphosphate 3-kinase catalytic subunit alpha isoform (Homo sapiens, UniProt P42336); assay: Inhibition of PI3K-alpha (unknown origin) at 100 uM relative to control
MDA-MB-468 [3] = assay: Anticancer activity against human MDA-MB-468 cells assessed as cell growth inhibition under hypoxia incubated for 48 hrs by SRB assay relative to control; type: functional
MDA-MB-468 [4] = assay: Anticancer activity against human MDA-MB-468 cells assessed as cell growth inhibition incubated for 48 hrs by SRB assay; type: functional, cell-based; conditions: MDA-MB-468, 48 h
MCF7 [5] = assay: Antitumor activity against human MCF7 cells by MTT assay
[6] = molecular target: Serine/threonine-protein kinase mTOR (Homo sapiens, UniProt P42345); assay: Inhibition of mTOR (unknown origin)
MDA-MB-231 [7] = assay: Antiproliferative activity against human MDA-MB-231 cells; type: functional, cell-based
MCF7 [8] = assay: Anti-proliferative activity against human MCF7 cells by MTT assay; type: functional, cell-based
MDA-MB-231 [9] = assay: Inhibition of cell survival in human MDA-MB-231 cells incubated for 72 hrs by MTT assay; type: functional, cell-based; conditions: MDA-MB-231, 72 h
MCF7 [10] = assay: Anti-cancer activity against human MCF7 cells; type: functional, cell-based
MCF7 [11] = assay: Anticancer activity against human MCF7 cells incubated for 48 hrs by MTT assay; conditions: MCF7, 48 h
[12] = molecular target: T2, Epidermal growth factor receptor (Homo sapiens, UniProt P00533); assay: Inhibition of EGFR (unknown origin) using Poly (Glu, Tyr) as substrate at 10 uM incubated for 40 mins in presence of ATP by Kinase-Glo Plus luminescence kinase assay relative to control
MCF7 [13] = assay: Anticancer activity against human MCF7 cells incubated for 24 hrs by MTT assay; type: functional, cell-based; conditions: MCF7, 24 h
MCF7 [14] = assay: Anticancer activity against human MCF7 cells incubated for 24 to 72 hrs by MTT assay; type: functional, cell-based
MDA-MB-231 [15] = assay: Cytotoxicity against human MDA-MB-231 cells incubated for 72 hrs by MTT assay; type: functional, cell-based; conditions: MDA-MB-231, 72 h
[16] = molecular target: T1, Phosphatidylinositol 4,5-bisphosphate 3-kinase catalytic subunit alpha isoform; assay: Inhibition of PI3K-alpha (unknown origin)
[17] = molecular target: T2, Epidermal growth factor receptor; assay: Inhibition of EGFR (unknown origin) by ELISA
MCF7 [18] = assay: Inhibition of cell viability in human MCF7 cells incubated for 48 hrs by MTT assay; type: functional, cell-based; conditions: MCF7, 48 h
MCF7 [19] = assay: Cytotoxicity against human MCF7 cells assessed as cell growth inhibition incubated for 72 hrs by MTT assay; type: functional, cell-based; conditions: MCF7, 72 h
Carbonic anhydrase 9 = Carbonic anhydrase 9 (Homo sapiens, UniProt Q16790); assay: Inhibition of human CA-IX
MCF7 [20] = assay: Cytotoxicity against human MCF7 cells
MDA-MB-231 [21] = assay: Inhibition of cell proliferation of human MDA-MB-231 cells incubated for 24 hrs by MTT assay; type: functional, cell-based; conditions: MDA-MB-231, 24 h
MCF7 [22] = assay: Inhibition of cell proliferation of human MCF7 cells incubated for 24 hrs by MTT assay; type: functional, cell-based; conditions: MCF7, 24 h
[23] = Inhibition of PI3K (unknown origin); design: species or system Homo sapiens
[24] = molecular target: T2, Epidermal growth factor receptor; assay: Inhibition of EGFR (unknown origin)
MDA-MB-468 [25] = assay: Anticancer activity against human MDA-MB-468 cells assessed as cell growth inhibition under normoxia at 10 uM incubated for 48 hrs by SRB assay relative to control; type: functional; conditions: read-out: GI
MCF7 [26] = assay: Anti-proliferative activity against human MCF7 cells incubated for 72 hrs by MTT assay; type: functional, cell-based; conditions: MCF7, 72 h

T2 sequence (P00533 whole entry): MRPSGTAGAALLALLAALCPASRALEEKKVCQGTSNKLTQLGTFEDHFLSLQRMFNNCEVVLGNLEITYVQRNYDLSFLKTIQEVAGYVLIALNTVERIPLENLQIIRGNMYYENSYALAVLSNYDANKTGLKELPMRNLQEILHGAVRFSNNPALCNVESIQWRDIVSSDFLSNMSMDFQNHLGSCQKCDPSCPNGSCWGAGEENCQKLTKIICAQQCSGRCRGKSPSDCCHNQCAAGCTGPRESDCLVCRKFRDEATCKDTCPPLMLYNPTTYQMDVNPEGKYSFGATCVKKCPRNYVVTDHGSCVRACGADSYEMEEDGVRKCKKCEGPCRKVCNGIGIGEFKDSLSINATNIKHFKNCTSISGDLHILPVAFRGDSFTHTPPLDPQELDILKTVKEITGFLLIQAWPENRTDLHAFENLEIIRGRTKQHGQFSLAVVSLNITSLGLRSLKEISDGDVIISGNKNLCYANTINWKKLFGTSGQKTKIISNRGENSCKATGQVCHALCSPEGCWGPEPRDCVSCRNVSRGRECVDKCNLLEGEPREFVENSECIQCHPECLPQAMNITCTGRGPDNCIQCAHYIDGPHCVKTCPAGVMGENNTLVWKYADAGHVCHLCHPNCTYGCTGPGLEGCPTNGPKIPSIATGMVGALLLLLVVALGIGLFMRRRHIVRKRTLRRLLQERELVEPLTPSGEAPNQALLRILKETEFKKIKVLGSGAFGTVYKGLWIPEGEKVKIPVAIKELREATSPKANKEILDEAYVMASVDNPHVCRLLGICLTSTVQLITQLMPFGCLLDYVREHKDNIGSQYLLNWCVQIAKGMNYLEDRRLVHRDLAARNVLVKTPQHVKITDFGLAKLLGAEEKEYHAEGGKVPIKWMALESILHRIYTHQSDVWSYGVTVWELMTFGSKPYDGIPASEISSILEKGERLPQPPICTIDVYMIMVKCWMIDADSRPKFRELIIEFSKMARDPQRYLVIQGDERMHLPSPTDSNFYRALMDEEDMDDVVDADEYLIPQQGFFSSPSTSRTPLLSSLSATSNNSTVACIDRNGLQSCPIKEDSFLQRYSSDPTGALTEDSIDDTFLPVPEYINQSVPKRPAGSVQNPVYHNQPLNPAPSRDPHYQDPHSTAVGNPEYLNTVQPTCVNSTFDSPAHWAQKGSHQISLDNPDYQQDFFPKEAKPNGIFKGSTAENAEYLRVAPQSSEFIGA
T1 sequence (P42336 whole entry, canonical isoform): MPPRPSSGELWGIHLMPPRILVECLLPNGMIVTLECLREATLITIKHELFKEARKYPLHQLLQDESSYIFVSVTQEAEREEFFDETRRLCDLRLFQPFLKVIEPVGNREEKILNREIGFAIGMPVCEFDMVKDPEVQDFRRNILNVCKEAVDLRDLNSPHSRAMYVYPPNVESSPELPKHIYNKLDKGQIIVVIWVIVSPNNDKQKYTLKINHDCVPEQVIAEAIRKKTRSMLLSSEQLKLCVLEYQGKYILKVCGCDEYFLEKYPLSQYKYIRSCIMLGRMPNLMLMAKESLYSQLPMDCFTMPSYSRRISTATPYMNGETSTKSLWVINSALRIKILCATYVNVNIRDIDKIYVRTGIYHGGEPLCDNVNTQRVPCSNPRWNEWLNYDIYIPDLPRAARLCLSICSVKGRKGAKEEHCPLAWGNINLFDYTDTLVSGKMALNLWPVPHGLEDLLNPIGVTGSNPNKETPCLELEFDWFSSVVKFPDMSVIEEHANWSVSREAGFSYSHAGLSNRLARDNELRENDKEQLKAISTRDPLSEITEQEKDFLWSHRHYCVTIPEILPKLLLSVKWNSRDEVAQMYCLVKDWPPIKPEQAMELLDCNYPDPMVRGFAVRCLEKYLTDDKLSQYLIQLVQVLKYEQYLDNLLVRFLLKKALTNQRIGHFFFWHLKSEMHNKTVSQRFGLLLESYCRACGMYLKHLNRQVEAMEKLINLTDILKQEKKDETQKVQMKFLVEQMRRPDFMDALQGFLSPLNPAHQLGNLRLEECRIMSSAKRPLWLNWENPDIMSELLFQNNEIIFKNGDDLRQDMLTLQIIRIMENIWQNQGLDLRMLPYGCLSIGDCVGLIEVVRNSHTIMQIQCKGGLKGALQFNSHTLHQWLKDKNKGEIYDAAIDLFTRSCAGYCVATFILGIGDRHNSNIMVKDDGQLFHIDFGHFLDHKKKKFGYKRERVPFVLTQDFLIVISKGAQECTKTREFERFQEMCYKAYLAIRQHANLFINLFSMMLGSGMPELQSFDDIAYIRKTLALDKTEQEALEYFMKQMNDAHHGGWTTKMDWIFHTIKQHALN

CCN(CC)c1nc(Nc2ccc(S(=O)(=O)NC(=N)N)cc2)nc(NN2CCOCC2)n1
IC50 (MCF7 [1]): > 100 µM
inhibition [2]: 68%

CCN(CC)c1nc(Nc2ccc(S(=O)(=O)NC(=N)N)cc2)nc(NC2CCCCC2)n1
IC50 (MCF7 [1]): 18.4 µM

N#C/C(=C\c1cccc(F)c1)c1nc(N)nc(Nc2ccc(S(N)(=O)=O)cc2)n1
growth inhibition (GI) (MDA-MB-468 [3]): 65%
IC50 (MDA-MB-468 [4]): 1.48 µM

CS(=O)(=O)N1CCN(Cc2ccc(-c3nc(-c4cnc(N)nc4)nc(N4CCOCC4)n3)s2)CC1
IC50 (MCF7 [5]): 1.25 µM
IC50 [6]: 0.048 µM

CC1CCN(c2nc(Cl)nc(Oc3ccc(-c4coc5cc(Oc6nc(Cl)nc(N7CCC(C)CC7)n6)cc(O)c5c4=O)cc3)n2)CC1
IC50 (MDA-MB-231 [7]): 23.1 µM

NCc1ccc(-c2nc(N/N=C/c3ccc(Br)cc3)nc(N3CCCCC3)n2)cc1
IC50 (MCF7 [8]): 4.63 µM

Nc1nc(COC(=O)c2ccc([N+](=O)[O-])cc2)nc(Nc2ccccc2)n1
IC50 (MDA-MB-231 [9]): 6 µM

COc1nc(OC)nc(-c2nc(-c3nnc(-c4cc(OC)c(OC)c(OC)c4)o3)co2)n1
IC50 (MCF7 [10]): 0.025 µM

Cc1nc2cc(Br)c(Br)cc2c(=O)n1-c1ccc(Nc2nc(Nc3ccc(Cl)cc3)nc(N3CCCCC3)n2)cc1
IC50 (MCF7 [11]): 18.4 µM

CCOC(=O)C1=CN(c2nc(Nc3cccc(F)c3)nc(Nc3cccc(F)c3)n2)C(=S)NC1c1ccc(F)cc1 (stereo unspecified)
inhibition [12]: 96.4%
IC50 (MCF7 [13]): 41.5 µM

CCOC(=O)C1=CN(c2nc(Nc3cccc(F)c3)nc(Nc3cccc(F)c3)n2)C(=S)NC1c1ccccc1OC (stereo unspecified)
inhibition [12]: 94.3%
IC50 (MCF7 [13]): 47.4 µM

Cc1nc2ccc(Br)cc2c(=O)n1Nc1nc(Nc2cccc(Cl)c2)nc(N2CCNCC2)n1
IC50 (MCF7 [14]): 7.16 µM

C=CCc1cc(C)cc(/C=N/NC(=O)Nc2ccc(-c3nc(N4CCOCC4)nc(N4CCOCC4)n3)cc2)c1O
IC50 (MDA-MB-231 [15]): 0.6 µM

CCN(CC)c1nc(Nc2ccccc2)nc(Nc2ccc(S(=O)(=O)NC(=N)N)cc2)n1
IC50 (MCF7 [1]): 17.5 µM

Nc1ncc(-c2nc(-c3ccc(CN4CCOCC4)s3)nc(N3CCOCC3)n2)cn1
IC50 (MCF7 [5]): 2.65 µM
IC50 [6]: 0.069 µM

CC1=NN(c2nc(Nc3ccc(Br)cc3)nc(-n3nc(C)cc3C)n2)C(C)C1 (stereo unspecified)
IC50 (MCF7 [1]): 2.66 µM

Cc1nc2cc(Br)c(Br)cc2c(=O)n1-c1ccc(Nc2nc(Nc3ccc(Br)cc3)nc(N3CCCCC3)n2)cc1
IC50 (MCF7 [11]): 17.8 µM

CN(C)C(=O)C1CCC(Oc2nc(-c3cccc4[nH]ncc34)nc(N3CCOCC3)n2)CC1 (stereo unspecified)
IC50 [16]: 0.06 µM

CN(C)c1nc(Cl)nc(NC2=NN(c3ccc(C(F)(F)F)cc3)C(c3ccc(C(F)(F)F)cc3)C2)n1 (stereo unspecified)
IC50 [17]: 0.229 µM
IC50 (MCF7 [18]): 0.0707 µM

COc1cc(OC)cc(-c2nnc(-c3coc(-c4nc(OC)nc(OC)n4)n3)o2)c1
IC50 (MCF7 [10]): 0.11 µM

CN(C)c1ccc(-c2nc(N)nc(Nc3ccccc3F)n2)cc1
IC50 (MCF7 [19]): > 20 µM

COc1nc(OC)nc(-c2nc(-c3nnc(-c4cc([N+](=O)[O-])cc([N+](=O)[O-])c4)o3)co2)n1
IC50 (MCF7 [10]): 1.34 µM

CNc1nc(Nn2c(C)nc3ccc(Br)cc3c2=O)nc(N2CCNCC2)n1
IC50 (MCF7 [14]): 9.52 µM

NS(=O)(=O)c1ccc(CNc2nc(Cl)nc(Nc3ccc(O)cc3)n2)cc1
Ki (Carbonic anhydrase 9): 0.0004 µM

COc1nc(OC)nc(-c2nc(-c3nnc(-c4cc([N+](=O)[O-])c(Br)c([N+](=O)[O-])c4)o3)co2)n1
IC50 (MCF7 [10]): 0.095 µM

CNC(=O)Nc1ncc(-c2nc(-c3ccc(CN4CCN(S(C)(=O)=O)CC4)s3)nc(N3CCOCC3)n2)cn1
IC50 [6]: 0.0109 µM
IC50 (MCF7 [20]): 0.03 µM

COc1nc(Nc2ccc(C#N)cc2)nc(N2CCOCC2)n1
IC50 (MDA-MB-231 [21]): 7.8 µM
IC50 (MCF7 [22]): 4.29 µM

COc1ccc(Nc2nc(N3CCOCC3)nc(-n3nc(C)cc3C)n2)cc1
IC50 (MCF7 [1]): 2.93 µM

FC(F)c1nc2ccccc2n1-c1nc(N2CCOCC2)nc(N2CCOCC2)n1 [ZSTK-474]
IC50 [23]: 0.037 µM

COc1ccc(/C=N/NC(=O)Nc2ccc(-c3nc(N4CCOCC4)nc(N4CCOCC4)n3)cc2)cc1
IC50 (MDA-MB-231 [15]): 0.52 µM

COc1ccc(Nc2nc(N3CCCC3)nc(-n3nc(C)cc3C)n2)cc1
IC50 (MCF7 [1]): 3.76 µM

Cc1cc(C)n(-c2nc(Nc3ccc(Br)cc3)nc(N3CCOCC3)n2)n1
IC50 [24]: 0.061 µM
IC50 (MCF7 [1]): 4.53 µM

Cc1nc2cc(Br)c(Br)cc2c(=O)n1-c1ccc(Nc2nc(N3CCCCC3)nc(N3CCOCC3)n2)cc1
IC50 (MCF7 [11]): 17.2 µM

CN(C)c1ccc(/C=C(\C#N)c2nc(N)nc(Nc3ccc(S(N)(=O)=O)cc3)n2)cc1
growth inhibition (GI) (MDA-MB-468 [3]): 60%
inhibition of growth at 10 µM (MDA-MB-468 [25]): 62%
IC50 (MDA-MB-468 [4]): 1.48 µM

NCc1ccc(-c2nc(N/N=C/c3ccc(Cl)cc3)nc(N3CCCCC3)n2)cc1
IC50 (MCF7 [26]): 3.29 µM

COc1cc(-c2nc(N)nc(Nc3ccc(C)cc3)n2)cc(OC)c1OC
IC50 (MCF7 [19]): > 20 µM

Cc1nc2ccc(Br)cc2c(=O)n1Nc1nc(Nc2ccc([N+](=O)[O-])cc2)nc(N2CCNCC2)n1
IC50 (MCF7 [14]): 9.54 µM

CC1=NN(c2nc(Nc3ccc(Cl)cc3)nc(-n3nc(C)cc3C)n2)C(C)C1 (stereo unspecified)
IC50 (MCF7 [1]): 2.29 µM

C(=N\Nc1nc(N2CCOCC2)nc(N2CCOCC2)n1)/c1ccccc1
IC50 (MCF7 [26]): 1 µM

Cc1cc(/C=N/NC(=O)Nc2ccc(-c3nc(N4CCOCC4)nc(N4CCOCC4)n3)cc2)cc(C)c1O
IC50 (MDA-MB-231 [15]): 0.4 µM

COc1nc(N/N=C/c2ccccc2)nc(-c2ccc(N)cc2)n1
IC50 (MCF7 [8]): 3.98 µM

CCN(CC)c1nc(NC(=S)NNc2ccnc3ccccc23)nc(N(CC)CC)n1
inhibition [12]: 90.5%
IC50 (MCF7 [11]): 32.3 µM

COc1nc(Nc2ccc(C#N)cc2)nc(-c2ccc(N)cc2)n1
IC50 (MDA-MB-231 [21]): 8.43 µM
IC50 (MCF7 [22]): 0.77 µM

O=[N+]([O-])c1ccc(Nc2nc(NC(=S)NNc3ccnc4ccccc34)nc(Nc3ccc([N+](=O)[O-])cc3)n2)cc1
inhibition [12]: 96.3%
IC50 (MCF7 [11]): 52.2 µM

CN(C)c1nc(Cl)nc(NC2=NN(c3ccc(Br)cc3)C(c3ccc(C(F)(F)F)cc3)C2)n1 (stereo unspecified)
IC50 [17]: 0.287 µM
IC50 (MCF7 [18]): 0.0128 µM
